Columns and labels:
giant foxtail = assay: Test A pre-/postemergence herbicide test; format: in vivo, Setaria faberii
Procedure, shortened: (§1)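 Greenhouse pot test with pre- and postemergence application of surfactant-containing solvent formulations. Postemergence plants were 2–10 cm, one- to two-leaf stage. Response scored visually after ~10 days, 0 (no effect) to 100 (complete control).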

lambsquarters = assay: Test C pre-/postemergence herbicide test; format: in vivo, Chenopodium album
Procedure, shortened: (§2)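 Greenhouse pots; formulation = non-phytotoxic solvent mix + surfactant. PRE onto seeds in loam:sand; POST at 1–4 leaves (2–18 cm) in peat moss/vermiculite medium. Read-out: visual % control vs untreated, day 13–15.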

crabgrass, large = assay: Test C pre-/postemergence herbicide test; format: in vivo, Digitaria sanguinalis
Procedure, shortened: as §2

soybean = assay: Test C pre-/postemergence herbicide test; format: in vivo, Glycine max
Procedure, shortened: as §2

pigweed = assay: Test C pre-/postemergence herbicide test; format: in vivo, Amaranthus retroflexus
Procedure, shortened: as §2

barnyardgrass = assay: Test A pre-/postemergence herbicide test; format: in vivo, Echinochloa crus-galli
Procedure, shortened: as §1

ryegrass, Italian = assay: Test C pre-/postemergence herbicide test; format: in vivo, Lolium multiflorum
Procedure, shortened: as §2

johnsongrass = assay: Test C pre-/postemergence herbicide test; format: in vivo, Sorghum halepense
Procedure, shortened: as §2

ducksalad = assay: Test B flooded paddy test; format: in vivo, Heteranthera limosa; settings: 500 g ai/ha, Flood; scale of 0 to 100 where 0 is no effect and 100 is complete control
Procedure, shortened: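 Visual ratings from 0, meaning no effect, up to 100, meaning complete control, were made by comparison with untreated controls 13 to 15 days after treatment. Test compounds went straight into floodwater standing 3 cm over the soil of pots holding 2-leaf seedlings.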

corn = assay: Test C pre-/postemergence herbicide test; format: in vivo, Zea mays
Procedure, shortened: as §2

nutsedge, yellow = assay: Test C pre-/postemergence herbicide test; format: in vivo, Cyperus esculentus
Procedure, shortened: as §2

[1] = Postemergence, 125 g ai/ha, visual rating on 0 to 100 scale (0 no effect, 100 complete control), approx. 10 days
[2] = Postemergence, 500 g ai/ha, 0 to 100 scale (0 no effect, 100 complete control)
[3] = Preemergence, 125 g ai/ha, 0 to 100 scale where 0 is no effect and 100 is complete control
[4] = Preemergence, 500 g ai/ha, visual rating on 0 to 100 scale (0 no effect, 100 complete control)
[5] = Preemergence, 31 g ai/ha, scale 0 to 100, 0 is no effect and 100 is complete control
[6] = Preemergence, 62 g ai/ha, scale 0 to 100 (0 no effect, 100 complete control)
[7] = Preemergence, 125 g ai/ha, scale 0 to 100
[8] = Postemergence, 31 g ai/ha, scale 0 to 100 (0 no effect, 100 complete control)
[9] = Postemergence, 62 g ai/ha, scale 0 (no effect) to 100 (complete control)
[10] = Postemergence, 125 g ai/ha, scale 0 to 100 (0 no effect, 100 complete control)
[11] = Postemergence, 250 g ai/ha, scale 0 to 100 (0 no effect, 100 complete control)

CC(C)c1cccc(C2CNC(=O)C2C(=O)Nc2ccccc2F)c1 (centres unmarked) [Compound 318]
Plant response rating, Foxtail, Giant (giant foxtail; [1]): 40
Plant response rating, Foxtail, Giant (giant foxtail; [2]): 70
Plant response rating, Foxtail, Giant (giant foxtail; [3]): 90
Foxtail, Giant plant response rating (giant foxtail; [4]): 90
Lambsquarters plant response rating (lambsquarters; [5]): 10
Lambsquarters plant response rating (lambsquarters; [6]): 55
Plant response rating, Lambsquarters (lambsquarters; [7]): 50
Plant response rating (scale of 0 to 100), Lambsquarters (lambsquarters; Preemergence, 250 g ai/ha): 60
Crabgrass, Large plant response rating (crabgrass, large; [5]): 95
Crabgrass, Large plant response rating (crabgrass, large; [6]): 98
Plant response rating, Crabgrass, Large (crabgrass, large; [7]): 98
Plant response rating (scale of 0 to 100), Crabgrass, Large (crabgrass, large; Preemergence, 250 g ai/ha): 100
Soybean plant response rating (soybean; [6]): 0
Plant response rating, Soybean (soybean; [7]): 0
Pigweed plant response rating (pigweed; [5]): 0
Pigweed plant response rating (pigweed; [6]): 20
Plant response rating, Pigweed (pigweed; [7]): 20
Plant response rating, Barnyardgrass (barnyardgrass; [1]): 90
Plant response rating, Barnyardgrass (barnyardgrass; [2]): 90
Plant response rating, Barnyardgrass (barnyardgrass; [3]): 90
Barnyardgrass plant response rating (barnyardgrass; [4]): 90
Ryegrass, Italian plant response rating (ryegrass, Italian; [6]): 0
Plant response rating, Ryegrass, Italian (ryegrass, Italian; [7]): 0
Johnsongrass plant response rating (johnsongrass; [5]): 0
Johnsongrass plant response rating (johnsongrass; [6]): 0
Plant response rating, Johnsongrass (johnsongrass; [7]): 45
Plant response rating (scale of 0 to 100), Johnsongrass (johnsongrass; Preemergence, 250 g ai/ha): 60
Plant response rating, Ducksalad (ducksalad): 100
Corn plant response rating (corn; [5]): 0
Corn plant response rating (corn; [6]): 0
Plant response rating, Corn (corn; [7]): 10
Plant response rating (scale of 0 to 100), Corn (corn; Preemergence, 250 g ai/ha): 60
Nutsedge, Yellow plant response rating (nutsedge, yellow; [5]): 0
Nutsedge, Yellow plant response rating (nutsedge, yellow; [6]): 0
Plant response rating, Nutsedge, Yellow (nutsedge, yellow; [7]): 0
Plant response rating (scale of 0 to 100), Nutsedge, Yellow (nutsedge, yellow; Preemergence, 250 g ai/ha): 0

CC(C)c1cccc(C2CNC(=O)C2C(=O)Nc2cccc(F)c2F)c1 (centres unmarked) [Compound 319]
Plant response rating, Foxtail, Giant (giant foxtail; [1]): 50
Plant response rating, Foxtail, Giant (giant foxtail; [2]): 90
Plant response rating, Foxtail, Giant (giant foxtail; [3]): 90
Foxtail, Giant plant response rating (giant foxtail; [4]): 90
Lambsquarters plant response rating (lambsquarters; [5]): 60
Lambsquarters plant response rating (lambsquarters; [6]): 65
Plant response rating, Lambsquarters (lambsquarters; [7]): 65
Plant response rating (scale of 0 to 100), Lambsquarters (lambsquarters; Preemergence, 250 g ai/ha): 75
Crabgrass, Large plant response rating (crabgrass, large; [5]): 95
Crabgrass, Large plant response rating (crabgrass, large; [6]): 98
Plant response rating, Crabgrass, Large (crabgrass, large; [7]): 95
Plant response rating (scale of 0 to 100), Crabgrass, Large (crabgrass, large; Preemergence, 250 g ai/ha): 98
Soybean plant response rating (soybean; [6]): 0
Plant response rating, Soybean (soybean; [7]): 0
Pigweed plant response rating (pigweed; [5]): 30
Pigweed plant response rating (pigweed; [6]): 25
Plant response rating, Pigweed (pigweed; [7]): 40
Plant response rating, Barnyardgrass (barnyardgrass; [1]): 90
Plant response rating, Barnyardgrass (barnyardgrass; [2]): 90
Plant response rating, Barnyardgrass (barnyardgrass; [3]): 90
Barnyardgrass plant response rating (barnyardgrass; [4]): 90
Ryegrass, Italian plant response rating (ryegrass, Italian; [6]): 10
Plant response rating, Ryegrass, Italian (ryegrass, Italian; [7]): 20
Johnsongrass plant response rating (johnsongrass; [5]): 40
Johnsongrass plant response rating (johnsongrass; [6]): 55
Plant response rating, Johnsongrass (johnsongrass; [7]): 65
Plant response rating (scale of 0 to 100), Johnsongrass (johnsongrass; Preemergence, 250 g ai/ha): 75
Plant response rating, Ducksalad (ducksalad): 100
Corn plant response rating (corn; [5]): 0
Corn plant response rating (corn; [6]): 30
Plant response rating, Corn (corn; [7]): 60
Plant response rating (scale of 0 to 100), Corn (corn; Preemergence, 250 g ai/ha): 65
Nutsedge, Yellow plant response rating (nutsedge, yellow; [5]): 0
Nutsedge, Yellow plant response rating (nutsedge, yellow; [6]): 0
Plant response rating, Nutsedge, Yellow (nutsedge, yellow; [7]): 0
Plant response rating (scale of 0 to 100), Nutsedge, Yellow (nutsedge, yellow; Preemergence, 250 g ai/ha): 30

O=C1NCC(c2cccc(OC(F)F)c2)C1C(=O)Nc1ccccc1F (centres unmarked) [Compound 323]
Plant response rating, Foxtail, Giant (giant foxtail; [1]): 90
Plant response rating, Foxtail, Giant (giant foxtail; [2]): 90
Plant response rating, Foxtail, Giant (giant foxtail; [3]): 90
Foxtail, Giant plant response rating (giant foxtail; [4]): 90
Plant response rating, Lambsquarters (lambsquarters; [8]): 10
Plant response rating, Lambsquarters (lambsquarters; [9]): 10
Plant response rating, Lambsquarters (lambsquarters; [10]): 65
Plant response rating, Lambsquarters (lambsquarters; [11]): 65
Lambsquarters plant response rating (lambsquarters; [5]): 40
Lambsquarters plant response rating (lambsquarters; [6]): 50
Plant response rating, Lambsquarters (lambsquarters; [7]): 75
Plant response rating (scale of 0 to 100), Lambsquarters (lambsquarters; Preemergence, 250 g ai/ha): 95
Plant response rating, Crabgrass, Large (crabgrass, large; [8]): 0
Plant response rating, Crabgrass, Large (crabgrass, large; [9]): 40
Plant response rating, Crabgrass, Large (crabgrass, large; [10]): 70
Plant response rating, Crabgrass, Large (crabgrass, large; [11]): 80
Crabgrass, Large plant response rating (crabgrass, large; [5]): 95
Crabgrass, Large plant response rating (crabgrass, large; [6]): 98
Plant response rating, Crabgrass, Large (crabgrass, large; [7]): 98
Plant response rating (scale of 0 to 100), Crabgrass, Large (crabgrass, large; Preemergence, 250 g ai/ha): 100
Plant response rating, Soybean (soybean; [8]): 0
Plant response rating, Soybean (soybean; [9]): 0
Plant response rating, Soybean (soybean; [10]): 0
Plant response rating, Soybean (soybean; [11]): 0
Soybean plant response rating (soybean; [6]): 0
Plant response rating, Soybean (soybean; [7]): 0
Plant response rating, Pigweed (pigweed; [8]): 0
Plant response rating, Pigweed (pigweed; [9]): 5
Plant response rating, Pigweed (pigweed; [10]): 25
Plant response rating, Pigweed (pigweed; [11]): 25
Pigweed plant response rating (pigweed; [5]): 35
Pigweed plant response rating (pigweed; [6]): 35
Plant response rating, Pigweed (pigweed; [7]): 55
Plant response rating, Barnyardgrass (barnyardgrass; [1]): 90
Plant response rating, Barnyardgrass (barnyardgrass; [2]): 90
Plant response rating, Barnyardgrass (barnyardgrass; [3]): 90
Barnyardgrass plant response rating (barnyardgrass; [4]): 90
Plant response rating, Ryegrass, Italian (ryegrass, Italian; [8]): 0
Plant response rating, Ryegrass, Italian (ryegrass, Italian; [9]): 0
Plant response rating, Ryegrass, Italian (ryegrass, Italian; [10]): 0
Plant response rating, Ryegrass, Italian (ryegrass, Italian; [11]): 5
Ryegrass, Italian plant response rating (ryegrass, Italian; [6]): 10
Plant response rating, Ryegrass, Italian (ryegrass, Italian; [7]): 0
Plant response rating, Johnsongrass (johnsongrass; [8]): 0
Plant response rating, Johnsongrass (johnsongrass; [9]): 0
Plant response rating, Johnsongrass (johnsongrass; [10]): 0
Plant response rating, Johnsongrass (johnsongrass; [11]): 10
Johnsongrass plant response rating (johnsongrass; [5]): 0
Johnsongrass plant response rating (johnsongrass; [6]): 0
Plant response rating, Johnsongrass (johnsongrass; [7]): 45
Plant response rating (scale of 0 to 100), Johnsongrass (johnsongrass; Preemergence, 250 g ai/ha): 60
Plant response rating, Ducksalad (ducksalad): 100
Plant response rating, Corn (corn; [8]): 0
Plant response rating, Corn (corn; [9]): 0
Plant response rating, Corn (corn; [10]): 5
Plant response rating, Corn (corn; [11]): 10
Corn plant response rating (corn; [5]): 0
Corn plant response rating (corn; [6]): 0
Plant response rating, Corn (corn; [7]): 10
Plant response rating (scale of 0 to 100), Corn (corn; Preemergence, 250 g ai/ha): 75
Plant response rating, Nutsedge, Yellow (nutsedge, yellow; [8]): 0
Plant response rating, Nutsedge, Yellow (nutsedge, yellow; [9]): 0
Plant response rating, Nutsedge, Yellow (nutsedge, yellow; [10]): 0
Plant response rating, Nutsedge, Yellow (nutsedge, yellow; [11]): 0
Nutsedge, Yellow plant response rating (nutsedge, yellow; [5]): 20
Nutsedge, Yellow plant response rating (nutsedge, yellow; [6]): 25
Plant response rating, Nutsedge, Yellow (nutsedge, yellow; [7]): 25
Plant response rating (scale of 0 to 100), Nutsedge, Yellow (nutsedge, yellow; Preemergence, 250 g ai/ha): 75

From patent publication US10294202B2, “Pyrrolidinones as herbicides” (FMC Corporation, priority 2013, dated 2019)
